Assay results taken from the RepoRT retention time repository.
Where a name gives a salt, the structure may show the parent alone.

Test: HILIC, Merck SeQuant ZIC-HILIC, 25 °C, 0.25 mL/min; A: water + 16 mM ammonium formate; B: acetonitrile + 0.1% formic acid, pH 3; gradient (min/%B) 0/97 2/97 10/70 15/10 17/10 18/97 25/97
Details: stereoisomer not certain

SMILES	LC retention time [min]
Nc1nc2c(ncn2C2CC(O)C(COP(=O)(O)OP(=O)(O)OP(=O)(O)O)O2)c(=O)[nH]1 (configuration not stated) [DGTP]	15.7
Cn1c(=O)[nH]c2[nH]c(=O)[nH]c2c1=O [1-Methyluric acid]	9.44
Cc1ncc(CO)c(C=O)c1O [PYRIDOXAL]	8.23
O=c1ccn(C2CC(O)C(COP(=O)(O)O)O2)c(=O)[nH]1 (configuration not stated) [DEOXYURIDINE-MONOPHOSPHATE]	13.4
OCC1OC(OC2OC(CO)C(O)C(O)C2O)C(O)C(O)C1O (configuration not stated) [TREHALOSE]	14.1
N[C@@H](Cc1cnc[nH]1)C(=O)O [L-Histidine]	15.8
NCCOP(=O)(O)O [ETHANOLAMINE PHOSPHATE]	14.9
CC(=O)NC(CS)C(=O)O (configuration not stated) [N-ACETYLCYSTEINE]	3.43
CC12CCC3c4ccc(O)cc4CCC3C1CCC2O (stereo not drawn) [ESTRADIOL-17ALPHA]	1.7
CCCCCCCCC=CCCCCCCCC(=O)OCC(O)COP(=O)([O-])OCC[N+](C)(C)C (configuration not stated) [18-1_LysoPC]	11.2
COC1=C(OC)C(=O)C(CC=C(C)C)=C(C)C1=O [coenzyme Q1]	1.53
O=C(O)CCCC(=O)O [GLUTARATE]	2.13
Cn1cncc1CCN [3-METHYLHISTAMINE]	17.2
Nc1nc2c(ncn2C2CC(O)C(COP(=O)(O)O)O2)c(=O)[nH]1 (configuration not stated) [dGMP sodium salt hydrate]	14.4
CC(=CCC1=C(C)C(=O)c2ccccc2C1=O)CCCC(C)CCCC(C)CCCC(C)C (configuration not stated) [PHYLLOQUINONE]	1.49
Oc1cc(O)c2c(c1)OC(c1ccc(O)c(O)c1)C(O)C2 (single isomer, unassigned; (+)) [(+)-Catechin hydrate]	9.95
NC(=O)NCCCC(N)C(=O)O (configuration not stated) [CITRULLINE]	14.5
Nc1ncnc2c1ncn2C1OC(COP(=O)(O)OP(=O)(O)O)C(O)C1O (configuration not stated) [ADENOSINE 5'-DIPHOSPHATE]	14.7
OCC1OCC(O)C(O)C1O [1-5-Anhydro-D-sorbitol]	10.1
COC(=O)CCCN [METHYL 4-AMINOBUTYRATE-CH2]	13.4
Cn1cnc2c(ncn2C2OC(CO)C(O)C2O)c1=N (configuration not stated) [1-METHYLADENOSINE]	12.8
O=C(O)CCCCCCCCCCCO [OMEGA-HYDROXYDODECANOATE]	1.7
Nc1nc2c(ncn2C2OC(CO)C(O)C2O)c(=O)[nH]1 (configuration not stated) [GUANOSINE]	11.4
CN1CC(=O)NC1=N [CREATININE]	11.7
NC(=O)C1=CN(C2OC(COP(=O)(O)OP(=O)(O)OCC3OC(n4cnc5c(N)ncnc54)C(OP(=O)(O)O)C3O)C(O)C2O)C=CC1 (configuration not stated) [NADPH]	15

SMILES	LC retention time [min]
O=CC(O)C1OC(=O)C(O)C1O [D-GLUCURONOLACTONE]	8.75
CCC(O)C(=O)[O-] (configuration not stated) [2-HYDROXYBUTYRATE]	2.1
Nc1ccn(C2OC(COP(=O)(O)OP(=O)(O)OP(=O)(O)O)C(O)C2O)c(=O)n1 (configuration not stated) [CYTIDINE TRIPHOSPHATE]	15.9
O=C(O)C(O)c1ccc(O)c(O)c1 (configuration not stated) [3-4 DIHYDROXYMANDELATE]	10.3
Nc1ncnc2c1ncn2C1CC(O)C(COP(=O)(O)OP(=O)(O)O)O1 (configuration not stated) [2'-DEOXYADENOSINE 5'-DIPHOSPHATE]	14.6
CS(=N)(=O)CCC(N)C(=O)O (configuration not stated) [METHIONINE SULFOXIMINE]	14.4
CCCCCCCCCCCCCCCC(O)C(N)CO (configuration not stated) [SPHINGANINE]	9.91
Cn1c(=O)[nH]c(=O)c2c1[nH]c(=O)n2C [3-7-Dimethyluric acid]	2.24
O=C1OC(C(O)CO)C(O)C1O [L-GULONOLACTONE]	10.3
c1ccc2ncccc2c1 [QUINOLINE]	2.14
O=C(O)C(=O)CO [HYDROXYPYRUVATE]	13.3
NC(Cc1c[nH]c2ccccc12)C(=O)O (configuration not stated) [TRYPTOPHAN]	11.4
COc1cc(CCN)ccc1O [3-METHOXYTYRAMINE]	11
COc1ccc2[nH]cc(CCNC(C)=O)c2c1 [MELATONIN]	1.92
O=C(O)CO [GLYCOLATE]	4
O=C(O)c1cccc[n+]1[O-] [Picolinic acid N-oxide]	1.9
O=C1CCNC(=O)N1 [DIHYDROURACIL]	2.13
N[C@@H](Cc1ccccc1)C(=O)O [L-Phenylalanine]	11.1
CCC(C)C(N)C(=O)O (configuration not stated) [ISOLEUCINE]	11.6
NC(CCOC(=O)CCC(=O)O)C(=O)O (configuration not stated) [O-SUCCINYL-HOMOSERINE]	13.3
CC(=O)C1(O)CCC2C3CCC4=CC(=O)CCC4(C)C3C(O)CC21C (configuration not stated) [21-Deoxycortisol]	1.68
O=C(O)/C=C/c1c[nH]c2ccccc12 [trans-3-indoleacrylic acid]	2.04
Nc1ccn(C2CC(O)C(COP(=O)([O-])OP(=O)([O-])[O-])O2)c(=O)n1 (configuration not stated) [DEOXYCYTIDINE-DIPHOSPHATE]	15.2
Nc1nc2c(ncn2C2OC(COP(=O)(O)O)C(O)C2O)c(=O)[nH]1 (configuration not stated) [GUANOSINE MONOPHOSPHATE]	14.7
CC(O)(CC(=O)O)C(=O)O (configuration not stated) [CITRAMALATE]	6.53

SMILES	LC retention time [min]
O=C([O-])C(O)c1ccccc1 (configuration not stated) [MANDELATE]	2.08
O=S(=O)(O)c1ccc(O)c(O)c1 [3-4-dihydroxybenzenesulfonic acid]	12.8
CCCCCCCCC=CCCCCCCCC(=O)OCC(O)COP(=O)(O)O (configuration not stated) [18-1_LysoPA]	9.21
CC(C)(CC(=O)O)C(=O)O [2-2-Dimethylsuccinic acid]	2.18
Cn1c(=O)c2c(ncn2C)n(C)c1=O [CAFFEINE]	1.87
CC(=O)C(=O)O [pyruvic acid]	5.68
O=c1[nH]c(=O)c2[nH]c(=O)[nH]c2[nH]1 [URATE]	11.2
Nc1nc2c(ncn2C2OC(COP(=O)(O)OP(=O)(O)OC3OC(CO)C(O)C(O)C3O)C(O)C2O)c(=O)[nH]1 (configuration not stated) [GUANOSINE DIPHOSPHATE MANNOSE]	15.2
O=C(O)CCCCCCC(=O)O [SUBERATE]	1.91
NCC(O)c1ccc(O)cc1 (configuration not stated) [P-OCTOPAMINE]	12.4
O=C(O)CC(=O)O [MALONATE]	6.35
NC(=O)C=CC(=O)O [MALEAMATE]	2.53
NC(Cc1ccc(O)c(O)c1)C(=O)O [3-4-DIHYDROXY-L-PHENYLALANINE]	13.4
Cc1c[nH]c(=O)[nH]c1=O [THYMINE]	2.14
O=c1ccn(C2CC(O)C(CO)O2)c(=O)[nH]1 (configuration not stated) [DEOXYURIDINE]	2.45
O=C(O)c1ccc(CO)o1 [5-hydroxymethyl-2-furancarboxylic acid]	4.31
CC(CCC(=O)O)C1CCC2C3CCC4CC(=O)CCC4(C)C3CCC12C (configuration not stated) [5b-cholanic acid-3-ONE]	1.63
O=C(O)C=Cc1cnc[nH]1 [UROCANATE]	8.66
C=Cc1c(C)c2cc3[nH]c(cc4nc(cc5nc(cc1[nH]2)C(C)=C5CCC(=O)O)C(CCC(=O)O)=C4C)c(C)c3C=C [PROTOPORPHYRIN]	1.81
CCCCCCCCCCCCCCC=COCC(O)COP(=O)([O-])OCC[N+](C)(C)C (configuration not stated) [C16_PlasmLPC]	11.1
CCC(NC(=O)CCC(N)C(=O)O)C(=O)NCC(=O)O (configuration not stated) [OPHTHALMATE]	14.1
CC12CCC(=O)C=C1CCC1C2C(=O)CC2(C)C1CCC2(O)C(=O)CO (configuration not stated) [CORTISONE]	1.8
C=C(C)CCOP(=O)(O)OP(=O)(O)O [ISOPENTENYL PYROPHOSPHATE]	2.11
CC(=O)NC(CCC(=O)O)C(=O)O (configuration not stated) [N-ACETYLGLUTAMATE]	8.36
NCCc1ccccc1 [PHENETHYLAMINE]	10.2

SMILES	LC retention time [min]
O=CC(O)CO (configuration not stated) [GLYCERALDEHYDE]	2.77
NCCc1cnc[nH]1 [HISTAMINE]	17
NCC(O)c1ccc(O)c(O)c1 (configuration not stated) [NORADRENALINE]	13.4
CCCC=O [BUTANAL]	1.71
O=C(O)C(=O)CS [MERCAPTOPYRUVATE]	13.8
O=CC[C@@H](O)[C@H](O)[C@H](O)CO [2-DEOXY-D-GLUCOSE]	10.2
COc1cc(C(=O)O)ccc1O [Vanillic acid]	2.08
NCCC(=O)NC(Cc1cnc[nH]1)C(=O)O (configuration not stated) [CARNOSINE]	16
O=C(O)c1cccnc1C(=O)O [QUINOLINATE]	8.88
O=C(O)c1cncc(O)c1 [5-Hydroxynicotinic acid]	6.4
O=c1[nH]cnc2c1ncn2C1OC(COP(=O)([O-])OP(=O)([O-])O)C(O)C1O (configuration not stated) [INOSINE 5'-DIPHOSPHATE]	15
Cc1cc(=O)oc(C)c1C(=O)O [Isodehydracetic acid]	2.33
O=c1[nH]cc(CO)c(=O)[nH]1 [5-HYDROXYMETHYLURACIL]	8.25
NCC(=O)CCC(=O)O [5-AMINOLEVULINATE]	13.8
C=C(C)C1CC=C(C)C(=O)C1 [(R)-(-)-Carvone]	1.55
CC(=O)C(C)O (configuration not stated) [ACETOIN]	2.12
CNC(=O)c1cccnc1 [N methyl nicotinamide]	2.15
CCCCCCCCC=CCCCCCCCCCCCCCC(=O)[O-] [NERVONATE]	1.52
NC(C(=O)O)c1ccccc1 (configuration not stated) [2-Phenylglycine]	11.8
CC(CCC(=O)O)C1CCC2C3C(O)C(O)C4CC(O)CCC4(C)C3CCC12C (configuration not stated) [5b-cholanic acid-3a-6a-7a-TRIOL]	2.19
Nc1ncnc2c1ncn2C1OC(CO)C(O)C1O (configuration not stated) [ADENOSINE]	8.64
OCC1OC(OCC2OC(OC3(CO)OC(CO)C(O)C3O)C(O)C(O)C2O)C(O)C(O)C1O (configuration not stated) [RAFFINOSE]	14.6
